According to US10392404B2, “Compounds and compositions as kinase inhibitors” (NOVARTIS AG, priority 2014, dated 2019):

Columns and labels:
C-RAF = target: T1, C-RAF (Homo sapiens, UniProt P04049, Y340E/Y341E); assay: In vitro Raf activity determination (Alpha Screen, biotinylated kinase-dead MEK1 substrate), C-Raf; type: biochemical; details: c-Raf approximately 4 nM; ATP 1 μM; pre-incubation 60 minutes; reaction 1 hour at room temperature
T1 construct: His tag (implied by nickel chromatography) (cleaved yes); StrepII tag (cleaved yes); made in house; host or cells: Sf9 insect cells (baculovirus), CRAF and h14-3-3 zeta co-expressed; MEK1 substrate from E. coli
T1 sequence (P04049 whole entry Y340E/Y341E): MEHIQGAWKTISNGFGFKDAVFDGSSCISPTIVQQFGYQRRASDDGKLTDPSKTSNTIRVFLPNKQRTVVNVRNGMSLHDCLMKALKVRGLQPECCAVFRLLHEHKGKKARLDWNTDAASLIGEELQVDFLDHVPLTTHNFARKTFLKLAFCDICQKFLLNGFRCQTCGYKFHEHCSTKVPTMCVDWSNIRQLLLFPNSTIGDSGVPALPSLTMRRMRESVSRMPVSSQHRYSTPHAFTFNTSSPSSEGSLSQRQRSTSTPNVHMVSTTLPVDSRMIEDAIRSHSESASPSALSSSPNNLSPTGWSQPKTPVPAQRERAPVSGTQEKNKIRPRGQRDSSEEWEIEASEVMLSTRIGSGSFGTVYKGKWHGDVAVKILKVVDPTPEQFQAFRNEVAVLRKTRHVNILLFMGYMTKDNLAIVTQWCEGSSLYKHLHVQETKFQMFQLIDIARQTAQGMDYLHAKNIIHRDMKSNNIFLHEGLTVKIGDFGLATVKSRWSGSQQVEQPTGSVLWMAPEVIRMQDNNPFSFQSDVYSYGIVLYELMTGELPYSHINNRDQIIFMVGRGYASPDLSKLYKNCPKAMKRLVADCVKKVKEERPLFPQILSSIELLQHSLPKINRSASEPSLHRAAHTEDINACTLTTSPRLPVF
T1 sequence (P63104 whole entry partner): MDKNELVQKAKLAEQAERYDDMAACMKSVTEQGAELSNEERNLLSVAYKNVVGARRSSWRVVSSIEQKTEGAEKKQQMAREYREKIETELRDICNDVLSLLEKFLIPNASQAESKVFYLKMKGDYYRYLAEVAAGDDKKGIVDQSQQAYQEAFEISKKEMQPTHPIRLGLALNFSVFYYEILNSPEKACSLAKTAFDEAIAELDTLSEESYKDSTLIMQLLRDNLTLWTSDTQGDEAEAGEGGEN
Outline: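 AlphaScreen read-out of MEK phosphorylation using an anti-phospho-MEK1/2 antibody after a 1 hour room-temperature reaction at 1 μM ATP. Enzyme: approximately 4 nM Sf9-expressed full-length activated C-Raf (Y340E/Y341E, with 14-3-3ζ) on approximately 10 nM biotinylated K97R MEK1, after 60 min compound preincubation. IC50 by non-linear fit.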

b-Raf (V600E) = target: T2, b-Raf (V600E) (Homo sapiens, UniProt P15056, V600E); assay: In vitro Raf activity determination (Alpha Screen, biotinylated kinase-dead MEK1 substrate), B-Raf; type: biochemical; details: b-Raf (V600E) approximately 4 pM; ATP 10 μM; pre-incubation 60 minutes; reaction 3 hours at room temperature
T2 construct: made in house
T2 sequence (P15056 whole entry V600E): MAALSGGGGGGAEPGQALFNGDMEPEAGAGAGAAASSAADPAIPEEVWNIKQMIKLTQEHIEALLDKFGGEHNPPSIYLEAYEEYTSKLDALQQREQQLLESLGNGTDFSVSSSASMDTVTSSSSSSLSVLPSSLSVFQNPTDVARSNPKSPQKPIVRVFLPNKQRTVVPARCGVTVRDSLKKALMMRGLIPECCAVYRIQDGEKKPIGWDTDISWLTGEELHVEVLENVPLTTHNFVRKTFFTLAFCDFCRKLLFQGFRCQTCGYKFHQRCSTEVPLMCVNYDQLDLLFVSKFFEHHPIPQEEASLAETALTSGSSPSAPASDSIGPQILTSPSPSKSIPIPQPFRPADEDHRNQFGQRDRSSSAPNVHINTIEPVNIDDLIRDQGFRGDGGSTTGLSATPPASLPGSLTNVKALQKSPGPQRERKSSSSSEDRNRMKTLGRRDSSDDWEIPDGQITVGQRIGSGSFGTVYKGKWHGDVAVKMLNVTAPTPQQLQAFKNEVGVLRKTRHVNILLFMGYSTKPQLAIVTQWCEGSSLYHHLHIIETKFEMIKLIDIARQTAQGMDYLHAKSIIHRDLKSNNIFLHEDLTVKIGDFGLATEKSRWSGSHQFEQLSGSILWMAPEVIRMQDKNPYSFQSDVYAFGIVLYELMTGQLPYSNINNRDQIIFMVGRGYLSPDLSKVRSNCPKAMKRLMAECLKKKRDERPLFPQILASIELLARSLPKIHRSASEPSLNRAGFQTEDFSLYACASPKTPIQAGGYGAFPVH
Outline: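 IC50 from non-linear regression of AlphaScreen phospho-MEK signal (anti-p-MEK1/2 antibody). b-Raf(V600E), about 4 pM, phosphorylated ~10 nM biotinylated K97R MEK1 with 10 μM ATP for 3 h at room temperature after 60 min compound pre-incubation; buffer pH 7.5 Tris, 15 mM MgCl2, 1 mM DTT.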

Structure (SMILES) | IC50 (C-RAF) [nM] | IC50 (b-Raf (V600E)) [nM]
Cc1ccc(NC(=O)c2ccnc(C(C)(C)C#N)c2)cc1-c1cnc(-n2ccc(=O)cc2)c(C#N)c1 [Example 120, N-(3-(3′-cyano-4-oxo-4H-[1,2′-bipyridin]-5′-yl)-4-methylphenyl)-2-(2-cyanopropan-2-yl)isonicotinamide] | 6.84 | 34.6
Cc1ccc(NC(=O)c2ccnc(C(F)(F)F)c2)cc1-c1cnc(C(C)C)c(C#N)c1 [Example 121, N-(3-(5-cyano-6-isopropylpyridin-3-yl)-4-methylphenyl)-2-(trifluoromethyl) isonicotinamide] | 0.307 | 0.871
Cc1ccc(NC(=O)c2ccnc(C(C)(C)C#N)c2)cc1-c1cnc(C(C)C)c(C#N)c1 [Example 122, N-(3-(5-cyano-6-isopropylpyridin-3-yl)-4-methylphenyl)-2-(2-cyanopropan-2-yl)isonicotinamide] | 0.994 | 2.8
Cc1ccc(NC(=O)c2cccc(C(F)(F)F)c2)cc1-c1cnc(-c2cnn(C)c2)c(C#N)c1 [Example 123, N-(3-(5-cyano-6-(1-methyl-1H-pyrazol-4-yl)pyridin-3-yl)-4-methylphenyl)-3-(trifluoromethyl) benzamide] | 0.15 | 1.18
Cc1ccc(NC(=O)c2ccnc(C(F)(F)F)c2)cc1-c1cnc(-c2cnn(C)c2)c(C#N)c1 [Example 124, N-(3-(5-cyano-6-(1-methyl-1H-pyrazol-4-yl)pyridin-3-yl)-4-methylphenyl)-2-(trifluoromethyl) isonicotinamide] | 0.0746 | 0.427
Cc1ccc(NC(=O)c2ccnc(C(C)(C)C#N)c2)cc1-c1cnc(-c2cnn(C)c2)c(C#N)c1 [Example 125, N-(3-(5-cyano-6-(1-methyl-1H-pyrazol-4-yl)pyridin-3-yl)-4-methylphenyl)-2-(2-cyanopropan-2-yl)isonicotinamide] | 0.254 | 1.46
Cc1ccc(NC(=O)c2ccnc(C(F)F)c2)cc1-c1cnc(-c2cnn(C)c2)c(C#N)c1 [Example 126, N-(3-(5-cyano-6-(1-methyl-1H-pyrazol-4-yl)pyridin-3-yl)-4-methylphenyl)-2-(difluoromethyl) isonicotinamide] | 0.0423 | 0.304
Cc1ncc(NC(=O)c2ccnc(C(F)(F)F)c2)cc1-c1cnc(C2CCOCC2)c(C#N)c1 [Example 127, N-(5′-cyano-2-methyl-6′-(tetrahydro-2H-pyran-4-yl)-[3,3′-bipyridin]-5-yl)-2-(trifluoromethyl) isonicotinamide] | 0.464 | 3.11
Cc1ncc(NC(=O)c2cccc(C(F)(F)F)c2)cc1-c1cnc(C2CCOCC2)c(C#N)c1 [Example 128] | 0.202 | 1.34
Cc1ncc(NC(=O)c2ccnc(C(F)F)c2)cc1-c1cnc(C2CCOCC2)c(C#N)c1 [Example 129, N-(5′-cyano-2-methyl-6′-(tetrahydro-2H-pyran-4-yl)-[3,3′-bipyridin]-5-yl)-2-(difluoromethyl) isonicotinamide] | 2.55 | 23.8
Cc1ncc(NC(=O)c2ccnc(C(C)C)c2)cc1-c1cnc(C2CCOCC2)c(C#N)c1 [Example 130, N-(5′-cyano-2-methyl-6′-(tetrahydro-2H-pyran-4-yl)-[3,3′-bipyridin]-5-yl)-2-isopropyl-isonicotinamide] | 0.879 | 4.83
Cc1ncc(NC(=O)c2ccnc(C3CC3)c2)cc1-c1cnc(C2CCOCC2)c(C#N)c1 [Example 131, N-(5′-cyano-2-methyl-6′-(tetrahydro-2H-pyran-4-yl)-[3,3′-bipyridin]-5-yl)-2-cyclopropyl-isonicotinamide] | 0.745 | 4.26
Cc1ncc(NC(=O)c2cccc(C(F)F)c2)cc1-c1cnc(N2CCOCC2)c(C#N)c1 [Example 132, N-(5′-cyano-2-methyl-6′-morpholino-[3,3′-bipyridin]-5-yl)-3-(difluoromethyl) benzamide] | 0.117 | 0.542
